Where two headings read alike, the source gives them in different places.
Assay: Pharmacokinetics in dogs (plasma concentration by HPLC)
Format: in vivo, dog (beagle)
Details: dog, plasma, po, 2 mg/kg/day; for AUC(0-t) / Cmax / Tmax / half-life / AUC(0-inf) / concentration at 0.5 h / concentration at 1 h / concentration at 2 h / concentration at 4 h: 2 mg/kg/day PO; for AUC(0-inf): read-out: AUCO- (to infinite time)
Experimental: Since dogs are used in toxicology studies of antiasthma compounds, this species is chosen for pharmacokinetic evaluations. Use of the dog permits the pharmacokinetic comparison of 2 or more compounds in the same test animal, an evaluation which could not be conveniently performed in a smaller species. For each test compound, normal dogs are given a dose of 2.0 mg/kg/day for 5 consecutive days. There is a washout period of 1 month between the study of each of the test compounds in the same four dogs. Each test compound is administered as a solution of 5 mg/ml in either 0.05 or 0.1N HCl which is dispensed into a gelatin capsule immediately prior to dosage.
Heparinized blood samples are obtained from each animal on the first, third and fifth day of dosage at 0.5, 1.0, 2.0, 4.0, 7.0, 12.0 and 24.0 hours after the dose. The samples are centrifuged immediately to obtain plasma which is frozen until analyzed.
Analysis of plasma is performed using High Performance Liquid Chromatography (HPLC). The analytical procedure is essentially identical for each compound. The internal standard used for N-[3-[2-(1H-imidazol-1-yl)ethoxy]phenyl]-4-(2-thienyl)2-pyrimidinamine is 2-chloro-11-(4-methyl-1-piperazinyl)dibenz[b,f][1,4]oxazepine succinate, while for 2-methyl-N^4 -[4-(4-pyridinyl)-2-pyrimidinyl]-1,4-benzenediamine dihydrochloride and N-[4-[2-(diethylamino)ethoxy]phenyl]-4-(4-pyridinyl)-2-pyrimidnamine dihydrochloride the internal standard is 7-ethoxy-coumarin. In a typical procedure, a 0.4 ml volume of acetonitrile containing internal standard is added a 0.2 ml volume of serum. The sample is mixed by vortexing and centrifuged. The clear protein free supernatent fluid is decanted into a clean tube and evaporated to dryness. The dry residue is dissolved in 0.2 ml of HPLC mobile phase and 50 ul of this solution injected. Peaks corresponding to the test compound being measured and to the internal standard compound are quantitated by their absorption of ultraviolet light at 280 nm. Each set of analytical samples is accompanied by the analysis of a group of standard dog plasma samples prepared to contain amounts of the compound being measured which encompasses the concentration range of the samples.
Four normal beagle dogs weighing between 9.2 and 10.2 Kg are used in the study.

For `Cc1cc(Nc2nccc(-c3ccncc3)n2)ccc1N.Cl.Cl` [Compound 2, 2-methyl-N^4-[4-(4-pyridinyl)-2-pyrimidinyl]-1,4-benzenediamine dihydrochloride, reference compound], the AUC(0-t) (Dog 3, day 3) was 477 ng·h/mL, the Cmax (Dog 3, day 3) was 387 ng/mL and the Tmax (Dog 3, day 3) was 30 min. For the same compound, the half-life (Dog 3, day 3) was 61.2 min, the AUC(0-inf) (Dog 3, day 3) was 635 ng·h/mL and the concentration at 0.5 h (Dog 3, day 5, 0.5 h) was 105 ng/mL. The concentration at 1 h (Dog 3, day 5, 1 h) was 289 ng/mL, the concentration at 2 h (Dog 3, day 5, 2 h) was less than 30 ng/mL and the concentration at 4 h (Dog 3, day 5, 4 h) was less than 30 ng/mL. The AUC(0-t) (Dog 3, day 5) was 125 ng·h/mL, the Cmax (Dog 3, day 5) was 289 ng/mL and the Tmax (Dog 3, day 5) was 60 min. The AUC(0-inf) (Dog 3, day 5) was 449 ng·h/mL, the concentration at 0.5 h (Dog 4, day 1, 0.5 h) was 482 ng/mL and the concentration at 1 h (Dog 4, day 1, 1 h) was 206 ng/mL. For the same compound, the concentration at 2 h (Dog 4, day 1, 2 h) was less than 30 ng/mL, the concentration at 4 h (Dog 4, day 1, 4 h) was less than 30 ng/mL and the AUC(0-t) (Dog 4, day 1) was 399 ng·h/mL. For the same compound, the Cmax (Dog 4, day 1) was 482 ng/mL, the Tmax (Dog 4, day 1) was 30 min and the AUC(0-inf) (Dog 4, day 1) was 630 ng·h/mL. The concentration at 0.5 h (Dog 4, day 3, 0.5 h) was 283 ng/mL, the concentration at 1 h (Dog 4, day 3, 1 h) was 44 ng/mL and the concentration at 2 h (Dog 4, day 3, 2 h) was less than 30 ng/mL. It also gave a concentration at 4 h (Dog 4, day 3, 4 h) of less than 30 ng/mL, an AUC(0-t) (Dog 4, day 3) of 175 ng·h/mL and a Cmax (Dog 4, day 3) of 283 ng/mL. For the same compound, the Tmax (Dog 4, day 3) was 30 min, the AUC(0-inf) (Dog 4, day 3) was 224 ng·h/mL and the concentration at 0.5 h (Dog 4, day 5, 0.5 h) was 420 ng/mL. It also gave a concentration at 1 h (Dog 4, day 5, 1 h) of less than 30 ng/mL, a concentration at 2 h (Dog 4, day 5, 2 h) of less than 30 ng/mL and a concentration at 4 h (Dog 4, day 5, 4 h) of less than 30 ng/mL. The AUC(0-t) (Dog 4, day 5) was 105 ng·h/mL, the Cmax (Dog 4, day 5) was 420 ng/mL and the Tmax (Dog 4, day 5) was 30 min. For the same compound, the AUC(0-inf) (Dog 4, day 5) was 575 ng·h/mL, the concentration at 0.5 h (Mean of 4 dogs, day 1, 0.5 h) was 509 ng/mL and the concentration at 1 h (Mean of 4 dogs, day 1, 1 h) was 221 ng/mL. The concentration at 2 h (Mean of 4 dogs, day 1, 2 h) was 74 ng/mL, the concentration at 4 h (Mean of 4 dogs, day 1, 4 h) was less than 30 ng/mL and the concentration at 0.5 h (Mean of 4 dogs, day 3, 0.5 h) was 326 ng/mL. It also gave a concentration at 1 h (Mean of 4 dogs, day 3, 1 h) of 175 ng/mL, a concentration at 2 h (Mean of 4 dogs, day 3, 2 h) of 66 ng/mL and a concentration at 4 h (Mean of 4 dogs, day 3, 4 h) of less than 30 ng/mL. The concentration at 0.5 h (Mean of 4 dogs, day 5, 0.5 h) was 249 ng/mL, the concentration at 1 h (Mean of 4 dogs, day 5, 1 h) was 156 ng/mL and the concentration at 2 h (Mean of 4 dogs, day 5, 2 h) was less than 30 ng/mL. It also gave a concentration at 4 h (Mean of 4 dogs, day 5, 4 h) of less than 30 ng/mL, an AUC(0-t) (Mean, day 1) of 458 ng·h/mL and a Cmax (Mean, day 1) of 509 ng/mL. The Tmax (Mean, day 1) was 30 min, the half-life (Mean, day 1) was 39 min and the AUC(0-inf) (Mean, day 1) was 599 ng·h/mL. It also gave an AUC(0-t) (Mean, day 3) of 354 ng·h/mL, a Cmax (Mean, day 3) of 326 ng/mL and a Tmax (Mean, day 3) of 30 min. It also gave a half-life (Mean, day 3) of 57.6 min, an AUC(0-inf) (Mean, day 3) of 460 ng·h/mL and an AUC(0-t) (Mean, day 5) of 178 ng·h/mL. It also gave a Cmax (Mean, day 5) of 334 ng/mL, a Tmax (Mean, day 5) of 45 min and an AUC(0-inf) (Mean, day 5) of 407 ng·h/mL. For the same compound, the k el (derived from mean of half-life values, read-out: elimination constant (converted)) was 0.000248 s⁻¹.

From patent US5162328A, “N-[3-[2-(1H-imidazol-1-yl)ethoxy]phenyl]-4-(2-thienyl)-2-pyrimidinamine and pharmacologically acceptable salts” (American Cyanamid Company, priority 1991, dated 1992)
